Laboratory results as given in ChEMBL document CHEMBL1201862, “PubChem BioAssay data set” (2004).
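Exposure lasted 48 hours, with cells grown in 96-well plates and compounds tested at five concentrations. The concentration for 50% growth inhibition is given as GI50.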 Active and inactive are the calls of the source. No stated cut-off is given here; in the data, active = GI50 up to about 1.1 µM and inactive = higher.

Tests used:
Assay in all cases: DTP human tumour cell line panel, 48 h
DMS-114 = system: DMS-114
DMS-273 = system: DMS-273
HCC 2998 = system: HCC 2998
HOP-92 = system: HOP-92
KM12 = system: KM12
OVCAR-5 = system: OVCAR-5
SF-268 = system: SF-268
SF-295 = system: SF-295
SF-539 = system: SF-539
SNB-75 = system: SNB-75
TK-10 = system: TK-10

Measured: GI50

O=C(O)C(Cl)(Cl)Cl
inactive: DMS-114 > 100 µM | DMS-273 > 100 µM | HCC 2998 > 100 µM | HOP-92 > 100 µM | KM12 > 100 µM | OVCAR-5 > 100 µM | SF-268 > 100 µM | SF-295 > 100 µM | SF-539 > 100 µM | SNB-75 63.1 µM | TK-10 > 100 µM
